According to patent US20250282895A1, “PHARMACEUTICAL COMPOSITIONS OF CHEMOTHERAPEUTIC AGENTS BASED ON BETA-S[…]-AMINO ACID DERIVATIVES” (priority 2021, published 2025):
Where a name gives a salt, the structure may show the parent alone.

Experiment: Stability (impurities) of Compound (1c):SBE6.5-β-CD formulations at different pH values
Type: physicochemical
Details: listed as Compound (1c) HCl salt, mono hydrochloride salt
Protocol: The stability of Compound (1c) in formulations containing a Compound (1c): SBE6.5-β-CD guest-host inclusion complex at different pH was determined by analytical HPLC/UV. The mass ratio of Compound (1c) to SBE6.5-β-CD was either 1:54 or 1:50.
To prepare the formulations, SBE6.5-β-CD was dissolved in water for injection (WFI) by continuous stirring until a clear solution was obtained. The solution was acidified by addition of 1 N HCl. Compound (1c) was dissolved in the acidified aqueous SBE6.5-β-CD solution and water was added at Q.S. to the final volume to prepare a solution with a nominal concentration of 5.0 mg/mL of Compound (1c). The pH was adjusted with 1 N HCl to the values shown in Table 7 which corresponded to the pH of the final formulation after reconstitution with 0.9% saline. The solution was filtered through a 0.22 μm syringe filter followed by lyophilization to dryness affording a colorless powdery solid. The freeze-dried lyophilizate was reconstituted with 0.9% saline to the nominal target concentration of 5.0 mg/mL of Compound (1c). […]
Analytical HPLC/UV was performed on a HPLC chromatograph equipped with a UV detector, a Waters Xbridge® C18 column (4.6× 150 mm; 5 μm) operated at 30° C. and a personal computer for data computation. Gradients of 0.01 M potassium dihydrogen phosphate solution (KH2PO4) solution adjusted to pH to 3.0 with phosphoric acid (H3PO4): acetonitrile=850:150 (v/v) (solvent A) and acetonitrile (MeCN; solvent B) were used in the analytical HPLC/UV analyses. The needle wash was performed with 50% aqueous acetonitrile. Prior to injection into the HPLC/UV system (10 μL injection volume), samples were diluted to a nominal concentration of 0.5 mg/mL of Compound (1c) with a 0.9 M sodium chloride (NaCl) and 0.1 N hydrochloric acid (HCl) diluent. The diluent solution was prepared from 5.26 g (90.0 mmol) of sodium chloride and 850 μL of concentrated hydrochloric acid (HCl) (36-38 wt-%, d 1.184, 1.00 g, 10.2 mmol) diluted to 100 mL solution.
The HPLC/UV method used employed a gradient from 10 vol-% of solvent B to 100 vol-% of solvent B with a 36 min runtime at a flow rate of 1.5 mL/min and UV detection at 2=220 nm.

[1] = Compound (1c):SBE6.5-β-CD 1:54, pH 4.1, 0 h, 5.0 mg/mL in 0.9% saline
[2] = Compound (1c):SBE6.5-β-CD 1:54, pH 4.1, Cake

Cc1ccc(N(CCCl)CCCl)cc1C[C@H](N)CC(=O)O [Compound (1c)•HCl, (S)-3-amino-4-(5-(bis(2-chloroethyl)amino)-2-methylphenyl) butanoic acid mono hydrochloride salt]
Impurity (% AUC) RRT 0.36 [1]: 1.51 % AUC
Impurity (% AUC) RRT 1.31 [1]: 0.18 % AUC
Impurity (% AUC) Total [1]: 2.2 % AUC
Impurity (% AUC) RRT 0.36 [2]: 1.51 % AUC
Impurity (% AUC) RRT 1.31 [2]: 0.18 % AUC
Impurity (% AUC) Total [2]: 2.13 % AUC
